Results reported in patent US8959984B2, “Proteome-wide quantification of small molecule binding to cellular target proteins” (priority 2007, dated 2015).

Experiments:
Experiment in all cases: binding to AX14596 beads (HeLa lysate, SILAC MS)
[1] = biological target: T1, ACAD10 (Homo sapiens, UniProt Q6JQN1)
T1 sequence (Q6JQN1 1-1059): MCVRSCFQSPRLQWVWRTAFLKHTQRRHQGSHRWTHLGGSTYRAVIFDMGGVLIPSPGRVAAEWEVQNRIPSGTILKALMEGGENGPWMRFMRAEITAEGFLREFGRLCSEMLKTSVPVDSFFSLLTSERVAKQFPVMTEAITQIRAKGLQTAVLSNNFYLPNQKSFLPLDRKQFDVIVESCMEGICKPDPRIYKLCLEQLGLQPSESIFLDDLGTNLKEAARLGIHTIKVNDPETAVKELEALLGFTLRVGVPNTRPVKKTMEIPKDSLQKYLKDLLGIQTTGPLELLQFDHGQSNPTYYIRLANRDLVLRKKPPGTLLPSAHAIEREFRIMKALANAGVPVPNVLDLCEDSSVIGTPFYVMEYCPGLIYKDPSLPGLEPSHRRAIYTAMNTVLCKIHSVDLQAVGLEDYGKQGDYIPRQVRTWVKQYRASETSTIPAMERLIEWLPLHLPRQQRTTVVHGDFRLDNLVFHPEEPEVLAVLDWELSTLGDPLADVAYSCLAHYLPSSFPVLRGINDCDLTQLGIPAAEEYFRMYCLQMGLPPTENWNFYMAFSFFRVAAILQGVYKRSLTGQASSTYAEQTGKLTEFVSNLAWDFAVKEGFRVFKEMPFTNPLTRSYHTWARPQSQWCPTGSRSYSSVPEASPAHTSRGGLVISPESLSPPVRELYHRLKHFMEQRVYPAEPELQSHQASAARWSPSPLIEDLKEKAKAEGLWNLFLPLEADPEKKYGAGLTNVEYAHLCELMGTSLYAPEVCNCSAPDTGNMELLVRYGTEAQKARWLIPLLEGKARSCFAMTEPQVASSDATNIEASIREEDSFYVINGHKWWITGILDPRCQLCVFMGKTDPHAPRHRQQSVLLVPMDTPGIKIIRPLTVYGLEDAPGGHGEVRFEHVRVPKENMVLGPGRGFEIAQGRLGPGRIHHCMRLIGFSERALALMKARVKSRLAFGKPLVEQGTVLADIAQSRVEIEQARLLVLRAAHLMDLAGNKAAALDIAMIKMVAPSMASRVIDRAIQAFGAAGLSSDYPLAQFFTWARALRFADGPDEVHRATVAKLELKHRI
Protocol: (§1) Differentially SILAC-encoded cell lysates were either incubated with the inhibitor beads displaying immobilized AX14596 or control resin devoid of ligand. In parallel, the supernatant from the first binding step was subjected to a second incubation with the AX14596 resin (FIG. 4). The resulting three elution fractions were combined, resolved by gel electrophoresis, proteolytically digested and the relative abundance of the retained proteins quantified. Proteins showing considerable binding to the control resin were identified as non-specific interactors and therefore not considered further. […] These target-specific ratios were similar in “label switch” experiments (FIGS. 6a and 6c). The binding equilibrium was determined in parallel control SILAC experiments as well as the excess of the immobilized compound over its cellular targets, the excess preferably being a molar excess (FIG. 7 and FIG. 8).
(§2) Cysteine carbamidomethylation was set as a fixed modification and N-acetyl protein and oxidized methionine were allowed as variable modifications. Spectra that were determined to result from heavy labeled peptides in the pre-search detection of SILAC partners by MaxQuant were searched with the fixed modifications Lys^4, Lys^8, Arg^6 and Arg^10, whereas MS/MS spectra for which no SILAC state could be assigned before database searching were searched with Lys^4, Lys^8, Arg^6 and Arg^10 as variable modifications. The mass tolerance was set to 5 ppm for monoisotopic precursor ions and to 0.5 Da for MS/MS peaks. The minimum peptide length was set to 6 amino acids and up to three missed cleavages and three isotopically labeled amino acids were permitted per peptide. The accepted false discovery rate (FDR) was 1% for the proteins and peptides. The cut-off for the posterior error probability (PEP) of peptides was set to 10%. Peptide PEPs were determined by generating Mascot score and peptide-length-dependent histograms for both the forward and the reverse hits and then deriving the probability of a false identification for a given top-scoring peptide using Bayes' theorem. The PEPs of peptides belonging to the same proteins were then multiplied. Each peptide sequence was considered only once with the lowest PEP determined in case of multiple sequencing of the same isotopic pattern or of peptide species with different SILAC, charge or modification states. Proteins were then sorted according to their products of their peptide PEPs and included until a FDR of 1% was reached according to the fraction of reverse proteins contained in the protein list. In addition to the FDR threshold applied for protein identification, proteins were only included when they were identified with at least two peptides (of which one was required to be unique for the protein) and quantified if at least on quantifiable SILAC pair was associated with them. Outliers were not removed as protein ratios were calculated as the median instead of the average of all peptide ratios. For peptides shared among different identified proteins, SILAC ratios were only considered for the ratio of the protein identified with the highest number of unique peptides. Protein ratios for the different in vitro association experiments were corrected for the initial SILAC pooling ratio, which was determined from the median of protein ratios in pooled SILAC-encoded cell extracts.

[2] = biological target: T2, ALK2 (ACVR1) (Homo sapiens, UniProt Q04771)
T2 sequence (Q04771 21-509): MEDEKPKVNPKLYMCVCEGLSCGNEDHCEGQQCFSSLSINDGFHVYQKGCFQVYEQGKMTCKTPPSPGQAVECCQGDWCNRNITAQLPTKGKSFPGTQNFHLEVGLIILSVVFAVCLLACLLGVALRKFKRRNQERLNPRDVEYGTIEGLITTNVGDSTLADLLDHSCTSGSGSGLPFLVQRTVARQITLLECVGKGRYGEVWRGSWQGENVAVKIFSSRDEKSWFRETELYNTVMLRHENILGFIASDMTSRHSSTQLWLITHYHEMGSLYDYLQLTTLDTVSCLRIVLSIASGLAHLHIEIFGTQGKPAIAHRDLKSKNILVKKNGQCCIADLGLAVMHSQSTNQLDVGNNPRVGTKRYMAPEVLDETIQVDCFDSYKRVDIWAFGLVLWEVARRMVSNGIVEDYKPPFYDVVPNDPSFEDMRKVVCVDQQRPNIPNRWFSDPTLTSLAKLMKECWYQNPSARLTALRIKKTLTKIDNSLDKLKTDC
Protocol: as §1, §2

[3] = biological target: MET (Homo sapiens, UniProt P08581)
Protocol: as §1, §2

[4] = biological target: SNRPE (Homo sapiens, UniProt P62304)
Protocol: as §1, §2

Sequence of MET (P08581 25-1390): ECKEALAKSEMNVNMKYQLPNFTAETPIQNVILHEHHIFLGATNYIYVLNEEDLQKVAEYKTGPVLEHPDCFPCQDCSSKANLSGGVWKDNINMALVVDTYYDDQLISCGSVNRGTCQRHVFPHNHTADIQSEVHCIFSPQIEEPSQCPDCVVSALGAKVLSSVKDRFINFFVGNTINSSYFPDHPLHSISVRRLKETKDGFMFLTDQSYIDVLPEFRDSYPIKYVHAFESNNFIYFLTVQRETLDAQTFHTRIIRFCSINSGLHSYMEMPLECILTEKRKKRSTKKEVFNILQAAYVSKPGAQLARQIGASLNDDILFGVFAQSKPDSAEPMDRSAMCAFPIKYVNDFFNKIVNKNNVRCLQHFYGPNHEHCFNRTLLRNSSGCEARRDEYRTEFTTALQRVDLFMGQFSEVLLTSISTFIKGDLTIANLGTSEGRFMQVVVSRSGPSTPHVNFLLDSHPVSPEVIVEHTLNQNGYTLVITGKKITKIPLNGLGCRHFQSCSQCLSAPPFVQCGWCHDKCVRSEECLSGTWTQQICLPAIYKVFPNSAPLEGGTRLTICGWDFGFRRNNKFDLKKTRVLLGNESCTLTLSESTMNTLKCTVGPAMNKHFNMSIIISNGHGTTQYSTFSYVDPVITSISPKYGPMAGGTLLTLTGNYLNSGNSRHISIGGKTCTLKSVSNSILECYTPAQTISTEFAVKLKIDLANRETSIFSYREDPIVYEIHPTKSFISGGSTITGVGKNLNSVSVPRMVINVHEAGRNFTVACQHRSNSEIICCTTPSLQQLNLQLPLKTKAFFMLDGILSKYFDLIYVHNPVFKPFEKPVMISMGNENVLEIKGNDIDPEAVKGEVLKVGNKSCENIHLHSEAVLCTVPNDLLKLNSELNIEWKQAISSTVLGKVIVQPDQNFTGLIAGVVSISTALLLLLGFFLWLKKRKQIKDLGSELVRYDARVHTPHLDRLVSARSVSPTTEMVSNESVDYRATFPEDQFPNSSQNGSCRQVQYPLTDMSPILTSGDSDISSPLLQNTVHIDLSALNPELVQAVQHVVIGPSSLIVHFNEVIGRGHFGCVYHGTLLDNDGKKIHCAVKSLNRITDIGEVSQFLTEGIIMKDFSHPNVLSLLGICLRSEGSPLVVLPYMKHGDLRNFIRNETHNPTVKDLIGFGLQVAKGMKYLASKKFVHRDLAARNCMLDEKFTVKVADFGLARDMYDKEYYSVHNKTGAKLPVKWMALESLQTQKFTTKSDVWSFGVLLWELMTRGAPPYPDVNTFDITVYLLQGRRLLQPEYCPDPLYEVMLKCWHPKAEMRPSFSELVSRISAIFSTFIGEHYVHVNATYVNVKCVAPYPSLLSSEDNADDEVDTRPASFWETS
Sequence of SNRPE (P62304 whole entry): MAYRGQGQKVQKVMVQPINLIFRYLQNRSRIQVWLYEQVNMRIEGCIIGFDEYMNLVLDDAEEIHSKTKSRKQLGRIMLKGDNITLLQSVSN

Compound: COc1cc2ncnc(Nc3ccc(F)c(Cl)c3)c2cc1OCCCN [AX14596]
- Ki [1]: 108 µM
- r (3 mg/1 mg lysate) [1]: 8.45
- r (5 h/2.5 h inc. time) [1]: 0.48
- rAVERAGE (2. inc/1. inc) [1]: 0.52
- rAVERAGE (control/1. inc) [1]: 0.08
- Ki [2]: 202 µM
- r (3 mg/1 mg lysate) [2]: 2.57
- r (5 h/2.5 h inc. time) [2]: 1.17
- rAVERAGE (2. inc/1. inc) [2]: 0.67
- rAVERAGE (control/1. inc) [2]: 0.15
- Ki [3]: 267 µM
- r (3 mg/1 mg lysate) [3]: 2.30
- r (5 h/2.5 h inc. time) [3]: 1.12
- rAVERAGE (2. inc/1. inc) [3]: 0.73
- rAVERAGE (control/1. inc) [3]: 0.06
- % BOUND ([3]; bound to AX14596 beads): 27%
- Ki [4]: 106 µM
- r (3 mg/1 mg lysate) [4]: 2.57
- r (5 h/2.5 h inc. time) [4]: 1.88
- rAVERAGE (2. inc/1. inc) [4]: 0.51
- rAVERAGE (control/1. inc) [4]: 0.07
